Laboratory results published in ChEMBL document CHEMBL5705884, “Breaching the DNA damage checkpoint via PF-00477736, a novel small-molecule inhibitor of checkpoint kinase 1” (Mol Cancer Ther, 2008).
Active and inactive are the calls of the source. The calls are words filed in the database; no cut-off is given here.

Assays:
[1] = biological target: Vascular endothelial growth factor receptor 2 (Homo sapiens, UniProt P35968); test: Binding affinity to VEGFR2 (unknown origin) assessed as inhibition constant
[2] = biological target: Cyclin-dependent kinase 1 (Homo sapiens, UniProt P06493); test: Binding affinity to CDK1 (unknown origin) assessed as inhibition constant
[3] = Clearance in Sprague-Dawley rat plasma at 4 mg/kg, iv administered as bolus dose by LCMS analysis; assay type: ADME, organism-based
[4] = Volume of distribution at steady state in Sprague-Dawley rat at 4 mg/kg, iv administered as bolus dose by LCMS analysis; assay type: ADME, organism-based; conditions: in vivo, read-out: Vdss
CA46 = test: Inhibition of camptothecin induced DNA damage in p-53 mutated human CA46 cells assessed as G2 checkpoint abrogation at 0.001 to 1 uM measured after 16 hrs presence of nocodazole by dot blot assay; assay type: functional, cell-based; conditions: dose 0.001-1 µM
HeLa = test: Inhibition of camptothecin induced DNA damage in human HeLa cells assessed as increase in mitotic index by measuring histone H3 phosphorylation at S10 residue at 0.001 to 1 uM measured after 16 hrs presence of nocodazole by dot blot assay; assay type: functional, cell-based
HT-29 [5] = test: Inhibition of gemcitabine induced cell cycle arrest in human HT-29 cells assessed as increase in G2-M cell population pretreated with gemcitabine followed by compound treatment and measured after 10 to 48 hrs by flow cytometry analysis; assay type: functional, cell-based; conditions: time 10-48 hrs
HT-29 [6] = test: Induction of apoptosis in gemcitabine induced human HT-29 cells assessed as apoptotic cell death measured after 32 hrs by PI staining based flow cytometry analysis (reference value: 1.2%); assay type: functional
HT-29 [7] = test: Cytotoxicity in human HT-29 cells assessed as cell survival at 180 nM measured after 4 to 48 hrs by coulter counter method relative to control; assay type: functional; conditions: time 4-48 hrs, read-out: Activity
HT-29 [8] = test: Potentiation of camptothecin induced cytotoxicity in human HT-29 cells assessed as cell survival at 180 nM measured after 4 to 48 hrs by coulter counter method relative to camptothecin alone; assay type: functional; conditions: time 4-48 hrs, read-out: Activity
PC-3 [9] = test: Antiproliferative activity against human PC-3 cells deficit of p53 expression assessed as inhibition of cell growth measured after 96 hrs by MTT assay; assay type: functional, cell-based; conditions: PC-3, 96 h
HT-29 [10] = test: Potentiation factor, ratio of IC50 for human HT-29 cells to IC50 for human HT-29 cells in presence of mytomicin-C; assay type: functional
PC-3 [11] = test: Potentiation factor, ratio of IC50 for human PC-3 cells to IC50 for human PC-3 cells in presence of carboplatin; assay type: functional
MDA-MB-231 = test: Potentiation factor, ratio of IC50 for human MDA-MB-231 cells to IC50 for human MDA-MB-231 cells in presence of carboplatin; assay type: functional
HT-29 [12] = test: Inhibition of gemcitabine induced cell cycle arrest in human HT-29 cells assessed as decrease in CDK1 phosphorylation level at 360 nM by immunoblot analysis; assay type: functional, cell-based; conditions: time 2-24 hrs
COLO 205 [13] = test: Antitumor activity against human COLO 205 cells xenografted in athymic nude mouse model assessed as tumor growth inhibition at 15 mg/kg, ip administered once daily in presence of gemcitabine (Gemcitabine alone = 40%); assay type: functional; conditions: read-out: TGI
COLO 205 [14] = test: Antitumor activity against human COLO 205 cells xenografted in athymic nude mouse model assessed as tumor growth inhibition at 7.5 mg/kg, ip administered once daily in presence of gemcitabine (Gemcitabine alone = 40%); assay type: functional; conditions: read-out: TGI
COLO 205 [15] = test: Antitumor activity against human COLO 205 cells xenografted in athymic nude mouse model assessed as tumor growth inhibition at 20 mg/kg, ip administered once daily in presence of gemcitabine (Gemcitabine alone= 58%); assay type: functional; conditions: read-out: TGI
COLO 205 [16] = test: Antitumor activity against human COLO 205 cells xenografted in athymic nude mouse model assessed as tumor growth inhibition at 4 mg/kg, ip administered twice daily in presence of gemcitabine (Gemcitabine alone= 58%); assay type: functional; conditions: read-out: TGI
COLO 205 [17] = test: Antitumor activity against human COLO 205 cells xenografted in athymic nude mouse model assessed as potentiated tumor growth inhibition at 12 mg/kg, ip administered once daily in presence of gemcitabine relative to control; assay type: functional; conditions: read-out: TGI
COLO 205 [18] = test: Antitumor activity against human COLO 205 cells xenografted in athymic nude mouse model assessed as potentiated tumor growth inhibition at 24 mg/kg, ip administered twice daily in presence of gemcitabine relative to control; assay type: functional; conditions: read-out: TGI
COLO 205 [19] = test: Antitumor activity against human COLO 205 cells xenografted in athymic nude mouse model assessed as potentiated tumor growth inhibition at 30 mg/kg, ip administered once daily in presence of gemcitabine relative to control; assay type: functional; conditions: read-out: TGI
COLO 205 [20] = test: Antitumor activity against human COLO 205 cells xenografted in athymic nude mouse model assessed as tumor growth delay by measuring test to control tumor ratio at 20 mg/kg, ip administered once daily in presence of gemcitabine (Gemcitabine alone= 8%); assay type: functional
COLO 205 [21] = test: Antitumor activity against human COLO 205 cells xenografted in athymic nude mouse model assessed as tumor growth delay by measuring test to control tumor ratio at 15 mg/kg, ip administered once daily in presence of gemcitabine (Gemcitabine alone = 3%); assay type: functional
COLO 205 [22] = test: Antitumor activity against human COLO 205 cells xenografted in athymic nude mouse model assessed as tumor growth delay by measuring test to control tumor ratio at 7.5 mg/kg, ip administered twice daily in presence of gemcitabine (Gemcitabine alone = 3%); assay type: functional
COLO 205 [23] = test: Antitumor activity against human COLO 205 cells xenografted in athymic nude mouse model assessed as gross log cell kill at 4 mg/kg, ip administered once daily in presence of gemcitabine (Gemcitabine alone = 0.5%); assay type: functional
COLO 205 [24] = test: Antitumor activity against human COLO 205 cells xenografted in athymic nude mouse model assessed as gross log cell kill at 4 mg/kg, ip administered twice daily in presence of gemcitabine (Gemcitabine alone = 0.5%); assay type: functional
COLO 205 [25] = test: Antitumor activity against human COLO 205 cells xenografted in athymic nude mouse model assessed as gross log cell kill at 20 mg/kg, ip administered once daily in presence of gemcitabine (Gemcitabine alone = 0.5%); assay type: functional
COLO 205 [26] = test: Antitumor activity against human COLO 205 cells xenografted in athymic nude mouse model assessed as gross log cell kill at 7.5 mg/kg, ip administered once daily in presence of gemcitabine (Gemcitabine alone = 0.27%); assay type: functional
COLO 205 [27] = test: Antitumor activity against human COLO 205 cells xenografted in athymic nude mouse model assessed as gross log cell kill at 30 mg/kg, ip administered once daily in presence of gemcitabine (Gemcitabine alone = 0.27%); assay type: functional
COLO 205 [28] = test: Antitumor activity against human COLO 205 cells xenografted in athymic nude mouse model assessed as gross log cell kill at 30 mg/kg, ip administered twice daily in presence of gemcitabine (Gemcitabine alone = 0.27%); assay type: functional
[29] = Toxicity in athymic nude mouse assessed as effect on body weight at 4 to 20 mg/kg, ip administered once daily in presence of gemcitabine; assay type: organism-based; conditions: in vivo, dose 4-20 mg/kg
[30] = Toxicity in athymic nude mouse assessed as effect on body weight at 4 to 20 mg/kg, ip administered twice daily in presence of gemcitabine; assay type: organism-based; conditions: in vivo, dose 4-20 mg/kg
COLO 205 [31] = test: In vivo inhibition of Chk1 in athymic nude mouse xenografted with gemcitabine treated human COLO 205 cells assessed as increase in caspase-3 level by immunohistochemical analysis; assay type: functional, cell-based; conditions: dose 15-30 mg/kg

Chain of Vascular endothelial growth factor receptor 2 (P35968 whole entry): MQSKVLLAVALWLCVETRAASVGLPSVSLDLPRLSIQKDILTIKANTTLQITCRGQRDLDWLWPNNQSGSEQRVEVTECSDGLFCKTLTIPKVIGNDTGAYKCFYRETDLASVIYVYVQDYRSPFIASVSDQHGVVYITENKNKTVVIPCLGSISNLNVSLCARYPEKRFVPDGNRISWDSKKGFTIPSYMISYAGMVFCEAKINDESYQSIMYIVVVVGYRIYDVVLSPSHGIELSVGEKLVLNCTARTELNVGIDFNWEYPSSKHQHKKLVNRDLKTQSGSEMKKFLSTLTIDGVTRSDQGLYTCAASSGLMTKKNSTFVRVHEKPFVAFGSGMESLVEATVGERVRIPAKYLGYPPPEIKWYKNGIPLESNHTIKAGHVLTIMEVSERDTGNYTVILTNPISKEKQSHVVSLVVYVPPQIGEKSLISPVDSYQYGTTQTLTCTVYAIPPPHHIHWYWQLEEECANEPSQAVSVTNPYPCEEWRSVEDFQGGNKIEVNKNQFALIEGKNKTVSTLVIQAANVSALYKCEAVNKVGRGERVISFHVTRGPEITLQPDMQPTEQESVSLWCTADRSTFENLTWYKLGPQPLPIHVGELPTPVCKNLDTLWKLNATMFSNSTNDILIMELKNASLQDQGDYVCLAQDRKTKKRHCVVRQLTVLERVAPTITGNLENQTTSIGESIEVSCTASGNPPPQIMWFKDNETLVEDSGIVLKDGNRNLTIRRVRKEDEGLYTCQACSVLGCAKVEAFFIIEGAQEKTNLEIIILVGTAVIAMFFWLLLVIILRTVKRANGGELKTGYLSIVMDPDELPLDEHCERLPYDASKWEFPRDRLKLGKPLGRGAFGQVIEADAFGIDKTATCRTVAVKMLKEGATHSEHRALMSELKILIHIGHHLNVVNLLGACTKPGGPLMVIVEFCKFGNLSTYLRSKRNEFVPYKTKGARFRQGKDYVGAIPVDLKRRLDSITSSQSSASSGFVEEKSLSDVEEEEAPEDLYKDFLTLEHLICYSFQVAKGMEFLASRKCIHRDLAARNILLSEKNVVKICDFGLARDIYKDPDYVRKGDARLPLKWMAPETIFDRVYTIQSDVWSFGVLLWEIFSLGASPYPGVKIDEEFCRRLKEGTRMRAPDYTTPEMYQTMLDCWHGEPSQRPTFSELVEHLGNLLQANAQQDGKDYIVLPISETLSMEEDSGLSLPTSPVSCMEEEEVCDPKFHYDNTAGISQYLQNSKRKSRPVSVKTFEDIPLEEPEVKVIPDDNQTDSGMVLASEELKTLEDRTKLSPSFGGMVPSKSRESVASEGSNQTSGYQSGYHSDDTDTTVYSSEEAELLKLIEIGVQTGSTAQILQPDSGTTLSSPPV
Chain of Cyclin-dependent kinase 1 (P06493 whole entry): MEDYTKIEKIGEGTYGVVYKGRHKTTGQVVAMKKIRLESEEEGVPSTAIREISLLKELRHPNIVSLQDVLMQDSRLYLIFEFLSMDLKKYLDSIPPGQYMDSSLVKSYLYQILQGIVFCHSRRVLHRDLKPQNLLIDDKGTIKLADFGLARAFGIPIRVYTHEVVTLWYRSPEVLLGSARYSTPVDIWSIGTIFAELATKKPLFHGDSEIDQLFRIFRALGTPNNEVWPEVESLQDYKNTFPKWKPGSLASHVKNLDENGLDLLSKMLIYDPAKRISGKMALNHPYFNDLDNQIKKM

Compound `Cn1cc(-c2[nH]c3cc(NC(=O)[C@H](N)C4CCCCC4)cc4c3c2C=NNC4=O)cn1` has a Ki [1] of 16 nM, a Ki [2] of 9.9 nM and a clearance [3] of 11.8 mL/min/kg. For the same compound, the Vd [4] was 0.7 L/kg, the inhibition (CA46) was “Active” and the EC50 (HeLa) was 38 nM. The inhibition (HT-29 [5]) was “Active”, the Activity (HT-29 [6]) was 18.1% and the viability at 0.18 µM (HT-29 [7]) was 97%. For the same compound, the viability at 0.18 µM (HT-29 [8]) was 90%, the IC50 (PC-3 [9]) was 1600 nM and the PF50 (HT-29 [10]) was 3.7. For the same compound, the PF50 (PC-3 [11]) was 3.1, the PF50 (MDA-MB-231) was 2.55 and the inhibition (HT-29 [12]) was “Dose-Dependent Effect”. It also gave an inhibition in vivo at 15 mg/kg (COLO 205 [13]) of 67%, an inhibition in vivo at 7.5 mg/kg (COLO 205 [14]) of 54% and an inhibition in vivo at 20 mg/kg (COLO 205 [15]) of 76%. The inhibition in vivo at 4 mg/kg (COLO 205 [16]) was 63%, the inhibition in vivo at 12 mg/kg (COLO 205 [17]) was 23% and the inhibition in vivo at 24 mg/kg (COLO 205 [18]) was 55%. For the same compound, the inhibition in vivo at 30 mg/kg (COLO 205 [19]) was 41%, the T/C (COLO 205 [20]) was 12 and the T/C (COLO 205 [21]) was 7.75. It also gave a T/C (COLO 205 [22]) of 13.25, an LCK (COLO 205 [23]) of 0.5 and an LCK (COLO 205 [24]) of 0.5. The LCK (COLO 205 [25]) was 0.75, the LCK (COLO 205 [26]) was 0.52 and the LCK (COLO 205 [27]) was 0.66. The LCK (COLO 205 [28]) was 0.89, the Activity [29] was “Non-Toxic” and the Activity [30] was “Non-Toxic”. For the same compound, the inhibition (COLO 205 [31]) was “Dose-Dependent Effect”.
